These results are taken from patent publication EP1293213A1, “PREVENTIVES/REMEDIES FOR POSTOPERATIVE STRESS” (Japan Tobacco Inc., priority 2000, dated 2001).

The target of assay [1] is T1, CRF type I(CRF-I) receptor (Homo sapiens, UniProt P34998).
T1 construct: expressed in transfected cells; membrane fraction
T1 sequence (P34998 24-415): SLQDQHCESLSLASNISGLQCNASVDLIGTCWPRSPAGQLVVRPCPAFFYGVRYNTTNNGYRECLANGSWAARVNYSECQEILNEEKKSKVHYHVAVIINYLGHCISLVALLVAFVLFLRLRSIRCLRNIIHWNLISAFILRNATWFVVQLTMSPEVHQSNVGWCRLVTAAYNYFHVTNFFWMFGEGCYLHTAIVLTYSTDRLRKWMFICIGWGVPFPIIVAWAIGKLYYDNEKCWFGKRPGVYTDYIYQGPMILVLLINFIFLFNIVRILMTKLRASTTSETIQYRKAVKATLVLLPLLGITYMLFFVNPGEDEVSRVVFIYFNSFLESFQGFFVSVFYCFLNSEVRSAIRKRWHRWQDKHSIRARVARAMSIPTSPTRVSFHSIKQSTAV
Nature of the assay: in vitro Binding Assay using membrane fraction of recombinant cell (6EF2B) expressing CRF receptor gene (SPA method). As to conditions: 125I-Tyr0-human/rat CRF, membrane fraction of 6EF2B cells (derived from Hela cell). The method, then:
Experiment 1 : in vitro Binding Assay using membrane fraction of recombinant cell (6EF2B) with expression of CRF receptor gene
Preparation of membrane fraction:
Recombinant cells 6EF2B (derived from Hela cell), which express CRF type I(CRF-I) receptor gene stably, were cultivated in Eagle's MEM medium(10%FCS, 400ug/ml G418.1/100 penicillin/streptomycin). After cultivation, cells were suspended in 50mM Tris-HCl (pH7.2) solution containing 1mM EDTA and incubated at 25°C for 15 to 30 minutes. After that, every step was carried out at 4°C. Treated cells were suspended in 50mM Tris-HCl(pH7.2) containing 10% sucrose and homogenized by a Polytron(PT10-35 model). This step of homogenization was carried out at 25,000 rpm for 15 to 20 seconds and repeated twice or three times. In the course of this step the homogenates were inspected under a microscope. Homogenates were centrifuged at 600 x g for 5 minutes and the supernatant was centrifuged again at 40,000 x g for 30 minutes. The obtained pellet was resuspended in 50mM Tris-HCl(10mM MgCl2, 2mM EGTA) and the suspension was centrifuged again at 40,000 x g for 30minutes. The obtained pellet was used for further experiments as membrane fraction. The membrane fraction was diluted with 50mM Tris-HCl(10mM MgCl2, 2mM EGTA, 0.1%BSA, 100 kallikrein units/ml aprotinin, 0.1mM bacitracin, pH7.2) to have the concentration of 1mg/ml and then stored at -80°C. DC protein assay kit (produced by Bio-RAD) was used to determine the protein concentration of the membrane fraction.
Binding Assay using CRF-I receptor by means of SPA method:
Compounds to be evaluated were stored at the concentration of 10mM in DMSO. […] The assay buffer consisted of 50mM Tris-HCl (pH7.7) containing 100mM NaCl, 5mM KCl, 2mM CaCl2, 0.1% BSA, 0.1% bacitracin, 0.05% FCS and 5% horse serum. The reactions were carried out in 96-well Optiplate(Packard) in which to 50ul of the test substance solution, were added 50ul of WGA-beads & membrane fraction (50 to 100ug membrane fraction/10mg beads/ml) pre-coupled by stirring (rotating with 10rpm) at room temperature for 2 hours on the day of experiment, and 100ul of 0.4nM ^125I-Tyr^0-human/rat CRF(NEX-216, Dupont NEN), to be made up 200ul as total volume, and the mixture was incubated at 25°C for 3 hours. By the way, the step of pre-coupling was carried out by using beads solution (20mg/ml) suspended in 50mM Tris-HCl buffer solution (pH7.2) and after stirring beads were washed twice with Tris-HCl buffer and once with assay buffer by centrifugation (3000 rpm, 5 minutes). In order to measure total binding and non-specific binding activity, assay buffer solution and 1uM(final conc.) cold human /rat CRF(C-3042; SIGMA) solution were used respectively in place of test substance solution. After incubation, the mixture was centrifuged at 23 °C, 2,500 rpm for 5 minutes and the scintillation was counted with Top Count (Packard). An influence of color quench was corrected by standard curve made by using tartrazine as a quencher. Evaluation of samples was carried out several times.

Assay [2] concerns adrenocorticotropic hormone(ACTH). Nature of the assay: Experiment 2: Model of surgical stress in mouse (inhibitory action of rise in releasing of ACTH). The class given is in vivo. Conditions: ddY male mice, intravenous, surgical stress (abdominal incision, bowel draped externally). The procedure: Experiment 2: Model of surgical stress in mouse (Inhibitory action of rise in releasing of adrenocorticotropic hormone(ACTH))
ddY male mice(SLC, 7 to 8 weeks of age: weight 34 to 42g)were used for experiments. Mice were housed before use under controlled lighting condition (12hours light and 12hours dark cycle(lights on from 8:00 to 20:00) at 23±3 °C and 55±15% humidity, and maintained with basal diet and water ad labium. On the experimental day, mice were moved to experimental room and habituated before experiment for more than 1 hour. On the day before experiment, mice were previously handled (by being fastened up for 10 to 15 seconds like the case of i.p. injections) to habituate to the stress caused by handling.
Medicine and administration:
Test compound to be evaluated was dissolved in and diluted with physiological saline(Otsuka), 5% mannitol or 0.1N NaHCO3/saline. Then the test sample solution was given into veins of mice at a dose of 10ml/Kg body weight. The same solvent alone mentioned above was given into veins of control mice group at a dose of 10ml/Kg weight.
Mice were anesthetized by injection of pentobarbital Na (2.5mg/mouse i.p.) and after 15 minutes the solvent alone or the solution containing test sample to be evaluated were intravenously injected on the tails of mice at a dose of 10ml/ Kg weight of mouse. After more 10 minutes a midline incision was made in the abdomen and in two minutes bowel was draped externally. Then 2.5 minutes after incision 0.6ml of blood samples were collected from main vein abdominalis for 1 minute gradually by using prechilled syringes(needle size 25G), which were wetted with 100mM EDTA solution. Control mice not subjected to surgical stress were decapitated and blood samples were collected at 13 to 14 minutes after medication of solvent alone and to them added 20ul of 100mM EDTA. Blood samples collected were put into siliconized tubes and centrifuged at 10,000rpm and 4°C for 5 minutes. The concentration of ACTH in supernatant was determined by IRMA method using Allegro ACTH kit (Nihon Medi+Physics Co.,Ltd.). […]

The mark [3] stands for this setting: read-out: IC50(nM) [experiment 1].

Like-named read-outs stand apart in the source and are kept apart here.

Broadly, the IC50 is the concentration at which inhibition is half-maximal. For the molecule `CCc1cc(S(=O)(=O)N(CC)CC)cc(NC(=O)c2cc(Cl)c(O)c(Cl)c2)c1OC` [Example 6, 3,5-dichloro-N-(3-ethyl-5-diethylsulfamoyl-2-methoxyphenyl)-4-hydroxybenzamide], the half-inhibitory concentration (IC50) in assay [1] (setting [3]) was found to be 218 nM.

`CCc1cc(S(=O)(=O)N(CC)CC)cc(NC(=O)c2cc(Cl)c([O-])c(Cl)c2)c1OC.[Na+]` [Example 8, sodium 2,6-dichloro-4-(N-(3-ethyl-5-diethylsulfamoyl-2-methoxyphenyl)carbamoyl)phenoxide]: in assay [1] (setting [3]), the IC50 was 195 nM. Also, in assay [2], the “Inhibitory action on ACTH release (mg/kg) [experiment 2]” value lay within 10 to 30 mg/kg.

As for `CCc1cc(S(=O)(=O)N(CC)CC)cc(NC(=O)c2cc(Cl)c(OP(=O)(O)O)c(Cl)c2)c1OC.O=P(O)(O)O` [Example 9, phosphate 2,6-dichloro-4-(N-(3-ethyl-5-diethylsulfamoyl-2-methoxyphenyl)carbamoyl)phenylphosphate], in assay [1] (IC50(nM) [experiment 1]), the IC50 amounted to 278 nM. In assay [2], the “Inhibitory action on ACTH release (mg/kg) [experiment 2]” value fell in the range of 10 to 30 mg/kg.

As to `CCN(CC)S(=O)(=O)c1cc(NC(=O)c2cc(Cl)c(O)c(Cl)c2)c(OC)c(OC)c1` [Example 10, 3,5-dichloro-N-(5-diethylsulfamoyl-2,3-dimethoxyphenyl)-4-hydroxybenzamide], in assay [1] (setting [3]), the IC50 was 165 nM.

For the molecule `CCN(CC)S(=O)(=O)c1cc(NC(=O)c2cc(Cl)c(O)c([N+](=O)[O-])c2)c(OC)c(OC)c1` [Example 11, 3-chloro-N-(5-diethylsulfamoyl-2,3-dimethoxyphenyl)-4-hydroxy-5-nitrobenzamide], the IC50 in assay [1] (setting [3]) came to 123 nM.

Take `CCN(CC)S(=O)(=O)c1cc(NC(=O)c2cc(Cl)c(O)c(Cl)c2)c(OC)c(N(C)C)c1` [Example 12, 3,5-dichloro-N-(5-diethylsulfamoyl-3-(dimethylamino)-2-methoxyphenyl)-4-hydroxybenzamide.]: the IC50 in assay [1] (setting [3]) was determined as 57 nM.
